Experimental data from US20080194585A1, “Fungicidal Pyrazine Derivatives” (priority 2005, published 2008).
Marks after values point to notes of the source that are not given here.

Legend:
Conditions in all cases: 100 = 100% disease control, 0 = no control
Plasmopara viticola = experiment: Test D: grape downy mildew, spray after inoculation of grape seedlings; type: in vivo
Excerpt: Upon removal, disease ratings were made. […] A dash (-) indicates no test results.

Phytophthora infestans = experiment: whole plant or invertebrate; type: in vivo
Septoria tritici = experiment: Test J: wheat leaf blotch, preventive spray on wheat seedlings; type: in vivo
Excerpt: A dash (-) indicates no test results.

fusarium graminearium = experiment: Test I: wheat head scab, preventive spray on wheat seedlings
Experimental: (the causal agent of wheat head scab) and incubated in a saturated atmosphere at 20° C. for 72 h, and then moved to a growth chamber at 22° C. for 5 days, after which disease ratings were made.

[1] = tested on: Puccinia recondita f. sp. tritici; experiment: Test K: wheat leaf rust, preventive spray on wheat seedlings
Botrytis cinerea = experiment: Test E: tomato botrytis, preventive spray on tomato seedlings
Septoria nodorum = experiment: Test H: wheat glum blotch, preventive spray on wheat seedlings
Experimental: (the causal agent of wheat glum blotch) and incubated in a saturated atmosphere at 20° C. for 48 h, and then moved to a growth chamber at 22° C. for 5 days, after which disease ratings were made.

[2] = tested on: Erysiphe graminis f. sp. tritici; experiment: Test L: wheat powdery mildew, preventive spray on wheat seedlings
Pythium aphanidermatum = experiment: Test A: bluegrass pythium blight, preventive spray on bluegrass seedlings
Rhizoctonia oryzae = experiment: Test G: turf brown patch, preventive spray on creeping bent grass seedlings
Experimental: (the causal agent of turf brown patch) and incubated in a saturated atmosphere at 27° C. for 24 h, and then moved to a growth chamber at 27° C. for 5 days, after which disease ratings were made.

[3] = tested on: Colletotrichum orbiculare; experiment: Test B: cucumber Colletotrichum anthracnose, preventive spray on cucumber seedlings

| Compound | Test D disease control rating (Plasmopara viticola; 40 ppm (marked *)) | Test F disease control rating (Phytophthora infestans; 40 ppm (marked *)) | Test J disease control rating (Septoria tritici; 40 ppm (marked *)) | Test I disease control rating (fusarium graminearium; 40 ppm (marked *)) | Test K disease control rating ([1]; 40 ppm (marked *)) | Test E disease control rating (Botrytis cinerea; 40 ppm (marked *)) | Test H disease control rating (Septoria nodorum; 40 ppm (marked *)) | Test L disease control rating ([2]; 40 ppm (marked *)) | Test A disease control rating (Pythium aphanidermatum; 40 ppm (marked *)) | Test D disease control rating (Plasmopara viticola; 200 ppm) | Test F disease control rating (Phytophthora infestans; 200 ppm) | Test J disease control rating (Septoria tritici; 200 ppm) | Test I disease control rating (fusarium graminearium; 200 ppm) | Test K disease control rating ([1]; 200 ppm) | Test E disease control rating (Botrytis cinerea; 200 ppm) | Test H disease control rating (Septoria nodorum; 200 ppm) | Test L disease control rating ([2]; 200 ppm) | Test A disease control rating (Pythium aphanidermatum; 200 ppm) | Test G disease control rating (Rhizoctonia oryzae; 200 ppm) | Test B disease control rating ([3]; 200 ppm) | other results |
| --- | --- | --- | --- | --- | --- | --- | --- | --- | --- | --- | --- | --- | --- | --- | --- | --- | --- | --- | --- | --- | --- |
| CC[C@H](C)Cn1c(-c2ccc(F)cc2Cl)c(Cl)nc(-n2ccc(C)n2)c1=O [compound 262] | 17* % | 39* % | 100* % | 0* % | 100* % | 100* % | 100* % | 99* % | 0* % |  |  |  |  |  |  |  |  |  |  |  | Test G disease control rating (Rhizoctonia oryzae; 40 ppm (marked *)): 76* %; Test B disease control rating ([3]; 40 ppm (marked *)): 100* % |
| CC[C@H](C)Cn1c(-c2ccc(F)cc2Cl)c(Cl)nc(-n2cccn2)c1=O [compound 263] | 0* % | 68* % | 100* % | 0* % | 100* % | 100* % | 100* % | 98* % | 0* % |  |  |  |  |  |  |  |  |  |  |  | Test G disease control rating (Rhizoctonia oryzae; 40 ppm (marked *)): 84* %; Test B disease control rating ([3]; 40 ppm (marked *)): 100* % |
| CC[C@H](C)Cn1c(-c2ccc(F)cc2Cl)c(Cl)nc(N2CCC=N2)c1=O [compound 264] | 0* % | 80* % | 100* % | 0* % | 91* % | 99* % | 0* % | 83* % | 0* % |  |  |  |  |  |  |  |  |  |  |  | Test G disease control rating (Rhizoctonia oryzae; 40 ppm (marked *)): 0* %; Test B disease control rating ([3]; 40 ppm (marked *)): 81* % |
| CCCCn1c(-c2ccc(F)cc2Cl)c(Br)nc(N2CCC=N2)c1=O [compound 286] | 0* % | 41* % | 37* % | 0* % | 0* % | 97* % | 0* % | 0* % | 0* % |  |  |  |  |  |  |  |  |  |  |  | Test G disease control rating (Rhizoctonia oryzae; 40 ppm (marked *)): 0* %; Test B disease control rating ([3]; 40 ppm (marked *)): 0* % |
| O=c1c(-n2cccn2)nc(Cl)c(-c2c(F)cc(F)cc2F)n1-c1ccccc1 [compound 287] | 47* % | 46* % | 100* % | 97* % | 99* % | 100* % | 99* % | 99* % | 56* % |  |  |  |  |  |  |  |  |  |  |  | Test G disease control rating (Rhizoctonia oryzae; 40 ppm (marked *)): 93* %; Test B disease control rating ([3]; 40 ppm (marked *)): 99* % |
| CCC(C)Cn1c(-c2c(F)cccc2F)c(Cl)nc(C(=O)NC)c1=O (stereo not shown) [compound 297] |  |  |  |  |  |  |  |  |  | 88% | 92% | 99% | 75% | 98% | 99% | 100% | 97% | 0% | 78% | 73% |  |
| CCCNC(=O)c1nc(Cl)c(-c2c(F)cccc2F)n(CC(C)CC)c1=O (stereo not shown) [compound 299] |  |  |  |  |  |  |  |  |  | 40% | 90% | 100% | 100% | 100% | 99% | 99% | 95% | 69% | 31% | 40% |  |
| CC(C)c1c(Cl)nc(-n2cccn2)c(=O)n1Cc1ccccc1 [compound 304] |  |  |  |  |  |  |  |  |  | 0% | 49% | 100% | 0% | 100% | 99% | 0% | 46% | 0% | 31% | 0% |  |
| Cc1ccn(-c2nc(Cl)c(C(C)C)n(Cc3ccccc3)c2=O)n1 [compound 305] |  |  |  |  |  |  |  |  |  | 0% | 50% | 93% | 0% | 97% | 99% | 0% | 52% | 0% | 16% | 0% |  |
| CC(C)c1c(Cl)nc(-n2cccn2)c(=O)n1-c1ccccc1 [compound 306] |  |  |  |  |  |  |  |  |  | 0% | 30% | 44% | 0% | 51% | 0% | 0% | 0% | 0% | 0% | 0% |  |
| Cc1ccn(-c2nc(Cl)c(C(C)C)n(-c3ccccc3)c2=O)n1 [compound 307] |  |  |  |  |  |  |  |  |  | 0% | 84% | 20% | 49% | 51% | 88% | 0% | 0% | 0% | 0% | 0% |  |
